Measurements taken from patent EP2177218A1, “Regenerative therapy” (Medizinische Universität Wien, priority 2008, dated 2010).
Entries after “also recorded” stand apart in the source; their conditions may differ.

Key:
OPCs [1] = test: OPC differentiation on myelin protein extract (MPE) or myelin substrate, O4 immunocytochemistry, pharmacological agents; type: cell-based, Sprague-Dawley rat; settings: for OPC differentiation / O4 expression in the presence of myelin inhibitors (result in words): differentiation medium; for max. mean increase of OPC differentiation: 48 hours incubation in differentiation medium, Fig. 4; for mean increase of OPC differentiation: OPCs on myelin (MPE)
Procedure: Primary cultures of oligodendrocyte precursor cells were isolated from PO-P2 neonatal Sprague-Dawley rat forebrains following a Standard protocol (McCarthy et al., J Cell Biol 85 (1980): 890-902) that were adapted for the present purpose (Syed et al. 2008, supra). In brief, hemispheres were stripped free of meninges, after a digestion step the cells were plated into cell culture flasks and mixed glia cultures were grown for approx. 10 days in DMEM medium supplemented with 10% PCS at 37°C and 7,5% CO2. To remove the loosely attached microglia the flasks were shaken for 1 hour at 260rpm on an orbital shaker before being shaken at 260rpm overnight to dislodge the loosely attached oligodendrocyte precursors. OPCs were further purified from contaminating microglia by a differential adhesion step. Subsequently OPCs were plated onto polylysine (PLL)-coated or Substrate coated dishes. To maintain cells at an early precursor stage PDGF-AA (Pepro Tech) and FGF (Pepro Tech) were added (10ng/ml) to SATOs medium. To induce differentiation cells were incubated in SATOs medium supplemented with 0.5% FCS. The purity of each culture was monitored following OPC purification by immunocytochemistry and only cultures with >94% purity were used. In the cultures minor contaminations of microglia that can be detected by isolectin staining and which amount to 4-5% of the cells, as well as by astrocytes (detectable by GFAP) and fibroblasts with distinct morphology, which account for about 1-2% of the cells are present.
To prepare myelin protein extract (MPE) the pellets were re-suspended in 1% N-octyl β-D-glucopyranoside, 0.2M Sodiumphosphate pH 6.8, 0.1 M Na2SO4 and 1mM EDTA and incubated at 23°C for 2 hours. Following an ultracentrifugation step (100,000 x g, 18°C, 30 min) the supernatants were collected and stored at -20°C until further usage.
The pooled OPCs harvested as outlined above were seeded at the same density of 20000 cells per well into polylysine (PLL)-coated 8-well chamber slides. Cells were differentiated for 48 hours and subsequently fixed with 4% paraformaldehyde in PBS, permeabilised and blocked with 0.3% Triton X-100 and 10% NGS. To assess the differentiation state of OPCs the cells were incubated with 04 antibody (1:100; Chemicon) for 1 hour in the presence of 0.1% Triton X-100 and 2% NGS, washed, and incubated for another 1 hour with the appropriate fluorescent secondary antibody (Cy3-conjugated antibody 1:100; Jackson Immuno Research) and the nuclei were stained using DAPI (Robinson et al., Dev Biol 216 (1999): 359-368; Syed et al. 2008, supra). It is important to note that permeabilisation of cells results in a punctate representation of the extracellular antigen 04 (Reynolds et al., Curr Opin Biotechnol 4 (1993): 734-738; Weiss et al., J Neurosci 16 (1996): 7599-7609; Syed et al. 2008, supra). Under an Olympus X51 fluorescent microscope using a triple-filter the percentage of O4-positive cells in relation to >100 DAPI-stained nuclei in randomly selected eye fields for each experimental condition were determined. To establish the purity of the OPC cultures immunocytochemistry for A2B5 (1:100; Chemicon) was performed according to the same principles and the percentage of A2B5+ cells to >100 DAPI-stained nuclei in randomly selected eye fields was determined. Only cell cultures with >94% A2B5-pos. cells were used for the present study. To assess the morphological phenotype of OPCs, A2B5+-cells were categorised according to the following criteria: stage 1: mono/bipolar; stage II: multipolar, primary branched; stage III: multipolar, secondary branched; stage IV: secondary branched cells with membranous processes.
To examine whether ROCK-II and PKC Signal transduction is implicated in the myelin mediated differentiation block, pharmacological inhibitors were added to the culture medium immediately after cell seeding. […]

OPCs [2] = test: TUNEL assay (apoptosis); type: cell-based, Sprague-Dawley rat; settings: treated OPCs on MPE vs OPCs on PLL control, Fig. 7
Procedure: Fragmented DNA was detected by incorporation of biotinylated nucleotides at the 3'-OH DNA ends using Terminal Deoxynucleotidyl Transferase recombinant (rTdT) enzyme according to the manufacturer's instruction (Promega). Stained cells were visualized by light microscopy and the percentage of apoptotic nuclei was determined.

demyelinating lesions = test: Remyelination in vivo after ethidium bromide lesions, blind ranking of semithin resin sections; parameters: species or system Sprague Dawley rats; settings: 0.5 mg/kg/d s.c. osmotic pumps, 14 days post lesion induction, preliminary
Procedure: The in vitro finding that rolipram is able to promote OPC differentiation in the presence of MAI was further developed to confirm remyelination in vivo. For this purpose demyelinating lesions were induced by topic injection of ethidium bromide into white matter tracts of young adult Sprague Dawley rats, and rolipram was applied subcutaneously by continuous osmotic pumps. 0,5mg/KG/d of rolipram was used in the first set of experiments that assessed the rate of remyelination. […] This is the first experiment that succeeded in enhancing the efficiency of remyelination in this model (Fig. 16).

CREB = CREB phosphorylation in OPCs (immunoprecipitation, Western blot for phospho-CREB); type: cell-based, Sprague-Dawley rat; settings: in the presence of MAI, Fig. 14
EB lesions = test: In situ hybridisation for cell markers in EB lesions; type: in vivo, Sprague-Dawley rats; settings: 0,5mg/KG/d s.c.; for number of active OPCs (Nkx2.2): day 7, vs PBS vehicle; for macrophage marker MRSB (immune response): day 7 and day 14, vs PBS vehicle; for number of PDGFR-α positive OPCs in lesions / number of PLP positive cells (mature oligodendrocytes): day 14, vs PBS vehicle
Procedure: To validate the finding that administration of rolipram promotes CNS remyelination, the experiments were repeated as follows. EB lesions were induced in Sprague-Dawley rats, and rats were treated either with rolipram (0,5mg/KG/d) or PBS vehicle administered via s.c. osmotic pumps implanted 3 days post lesion induction. Animals were sacrificed at day 7 and day 14 post lesion induction and the tissue processed for in situ hybridization. The lesion area was visualized and measured on digitized solochrome cyanine stained sections and the number of cells within the lesion area as detected by ISH was determined.
PDGFR-α, a general marker for OPCs, was used to determine the presence of OPCs in the lesions.
Nkx2.2 can be used to detect activated OPCs within remyelinating lesions.
To detect mature oligodendrocytes, in situ hybridization for PLP was conducted. The extent of remyelination in control animals at 14 days is minimal. As to be expected in control animals the number of PLP positive cells remained unchanged at day 7 and day 14.
Finally, ISH for MRSB, a marker for macrophages, was used to determine whether rolipram treatment affects the immune response.

O=S(=O)(c1cccc2cnccc12)N1CCCNCC1 [HA-1077, 1-(5-lsoquinolinesulfonyl)-1H-hexahydro-1,4-diazepine 2 HCI]
mean increase in the number of differentiating OPCs (OPCs [1]; OPCs on MPE, 5µM, 48 hours in differentiation medium, n=4): 174% | increase of differentiating cells (OPCs [1]; OPCs on MPE, 48h culture in differentiation medium, Fig. 3b): more than 160% | OPC differentiation / O4 expression in the presence of myelin inhibitors (result in words) (OPCs [1]; OPCs on MPE): largely restored | apoptosis, TUNEL positive cells (OPCs [2]): no significant differences

COc1ccc(C2CNC(=O)C2)cc1OC1CCCC1 (centres unmarked) [rolipram]
differentiation capability of OPCs plated on MPE (OPCs [1]; 0.5µM in the medium): completely restore | OPC differentiation / O4 expression in the presence of myelin inhibitors (result in words) (OPCs [1]; OPCs on MPE): able to induce OPC differentiation; also recorded: able to restore OPC differentiation | extent of remyelination, rank assessment (demyelinating lesions): able to promote remyelination in-vivo; also recorded: potently enhanced | CREB phosphorylation / activation in OPCs (CREB): restores CREB activation | CREB phosphorylation / activation in OPCs (CREB; listed as Rolipram): inducing CREB phosphorylation | number of active OPCs (Nkx2.2) (EB lesions): effectively increased | number of active OPCs (Nkx2.2) (EB lesions; listed as Rolipram): increase | macrophage marker MRSB (immune response) (EB lesions): no differences detected | macrophage marker MRSB (immune response) (EB lesions; listed as Rolipram): did not affect the immune response | number of PDGFR-α positive OPCs in lesions (EB lesions): remained elevated | number of PLP positive cells (mature oligodendrocytes) (EB lesions): significant increase | number of PDGFR-α positive OPCs in lesions (EB lesions; listed as Rolipram): maintained levels | number of PLP positive cells (mature oligodendrocytes) (EB lesions; listed as Rolipram): strong increase | number of Nkx2.2 positive cells (EB lesions; later stages (day 14), vs PBS vehicle): reached levels of control animals

[H]/N=C(/N)SCCCn1cc(C2=C(c3cn(C)c4ccccc34)C(=O)NC2=O)c2ccccc21 [BIM, Bisindolylmaleimide IX]
max. mean increase of OPC differentiation (OPCs [1]; OPCs on MPE): 169% | mean increase of OPC differentiation (OPCs [1]; 6.25nM, n=4): 169%

12-(2-cyanoethyl)-6,7,12,13-tetrahydro-13-methyl-5-oxo-5H-indolo[2,3-a]pyrrollo[3,4-c]carbazole [Gö6976]
max. mean increase of OPC differentiation (OPCs [1]; OPCs on MPE): 269% | mean increase of OPC differentiation (OPCs [1]; 50nM, n=3): 267% | apoptosis, TUNEL positive cells (OPCs [2]): no differences

NCCCCN [putrescine]
OPC differentiation / O4 expression in the presence of myelin inhibitors (result in words) (OPCs [1]; OPCs on MPE): not the case | OPC differentiation / O4 expression in the presence of myelin inhibitors (result in words) (OPCs [1]; OPCs on MPE, listed as Putrescine): does not stimulate OPC differentiation

CCCC(=O)Nc1ncnc2c1ncn2[C@@H]1O[C@@H]2COP(=O)([O-])O[C@H]2[C@H]1OC(=O)CCC.[Na+] [db-cAMP]
OPC differentiation / O4 expression in the presence of myelin inhibitors (result in words) (OPCs [1]; OPCs on MPE): partially overcome
